Data set [1] can be described thus: in vitro. To be noted: human, liver microsomes. In general terms: Microsomes from liver hold many membrane-bound enzymes, among them those of drug oxidation.
Description: Apparent total intrinsic clearance in human liver microsomes
Data set [2] can be described thus: in vitro. The note with it: dog, MDCK.
Description: Intrinsic absorptive permeability from apical to basolateral side of dog RRCK cells
A short description of data set [3]: physchem. To be noted: octanol/water, pH 7.4.
In data set [4] the target is T1, ALK tyrosine kinase receptor (Homo sapiens, UniProt Q9UM73, L1196M).
For data set [5], the target named is T1, ALK tyrosine kinase receptor. This is another data set of the same source.
The nature of data set [6]: Cmax in rat at 5 mg/kg, po. It counts as ADME, organism-based. On the set-up: dose 5 mg/kg, route oral. To be noted: in vivo.
For data set [7], the target named is Leukocyte tyrosine kinase receptor (Homo sapiens, UniProt P29376). As to the kind of experiment: Inhibition of LTK (unknown origin) using Km levels of ATP.
The target of data set [8] is BDNF/NT-3 growth factors receptor (Homo sapiens, UniProt Q16620). As to the kind of experiment: Inhibition of NTRK2 (unknown origin) using Km levels of ATP.
Data set [9] is described as follows: Antitumor activity against human NCI-H3122 cells harboring ALK L1196M mutant xenografted in athymic nu/nu mouse assessed as tumor growth regression at 50 mg/kg, po bid administered via gavage starting on day 15 post tumor implantation measured on day 27. The format is functional. (In general: In xenograft studies the graft and the host belong to different species.)

Data set [10] can be described thus: AUC in rat at 5 mg/kg, po. To be noted: plasma. On the set-up: dose 5 mg/kg, route oral. The format is ADME, organism-based.
Data set [11] has as its target Tyrosine-protein kinase Fes/Fps (Homo sapiens, UniProt P07332). As to the kind of experiment: Inhibition of FES (unknown origin) using Km levels of ATP.
The nature of data set [12]: Plasma clearance in rat at 1 mg/kg, iv. It counts as ADME, organism-based. On the set-up: dose 1 mg/kg, route intravenous.
A short description of data set [13]: Antitumor activity against human NCI-H3122 cells harboring ALK L1196M mutant xenografted in athymic nu/nu mouse assessed as tumor total growth inhibition at 30 mg/kg, po qd administered via gavage starting on day 15 post tumor implantation. To be noted: NCI-H3122, 360 h, read-out: TGI. The format is functional.
The nature of data set [14]: AUC in rat at 1 mg/kg, iv. On the set-up: dose 1 mg/kg, route intravenous. The note with it: plasma. The format is ADME, organism-based.
The nature of data set [15]: Half life in rat at 1 mg/kg, iv. Further details: dose 1 mg/kg, route intravenous. It counts as ADME, organism-based. The note with it: in vivo.
The test system of data set [16] is Mus musculus. The data set can be described thus: Toxicity in po dosed athymic nu/nu mouse xenografted with human NCI-H3122 cells harboring ALK L1196M mutant assessed as body weight reduction administered via gavage starting on day 15 post tumor implantation. It counts as organism-based. The note with it: in vivo.
Data set [17] has as its target Tyrosine-protein kinase Fer (Homo sapiens, UniProt P16591). As to the kind of experiment: Inhibition of FER (unknown origin) using Km levels of ATP.
The target in data set [18] is Activated CDC42 kinase 1 (Homo sapiens, UniProt Q07912).
Data set [19] can be described thus: Tmax in rat at 5 mg/kg, po. It counts as ADME, organism-based. Further details: dose 5 mg/kg, route oral. The note with it: in vivo.
Data set [20] can be described thus: Oral bioavailability in rat at 5 mg/kg. The format is ADME, organism-based. To be noted: in vivo.
Data set [21] can be described thus: Antitumor activity against human NCI-H3122 cells harboring ALK L1196M mutant xenografted in athymic nu/nu mouse assessed as tumor total growth inhibition at 15 mg/kg, po bid administered via gavage starting on day 15 post tumor implantation. It counts as functional. The note with it: NCI-H3122, 360 h, read-out: TGI.
Data set [22] concerns the target Focal adhesion kinase 1 (Homo sapiens, UniProt Q05397). The data set can be described thus: Inhibition of PTK2 (unknown origin) using Km levels of ATP.
Data set [23] deals with NT-3 growth factor receptor (Homo sapiens, UniProt Q16288). The data set can be described thus: Inhibition of NTRK3 (unknown origin) using Km levels of ATP.
Data set [24] addresses High affinity nerve growth factor receptor (Homo sapiens, UniProt P04629). The data set can be described thus: Inhibition of NTRK1 (unknown origin) using Km levels of ATP.
The target in data set [25] is Proto-oncogene tyrosine-protein kinase ROS (Homo sapiens, UniProt P08922). The data set can be described thus: Inhibition of ROS1 (unknown origin) by Pfizer mobility shift assay.
Data set [26] in a line: Volume of distribution at steady state in rat at 1 mg/kg, iv. It counts as ADME, organism-based. To be noted: in vivo, read-out: Vdss. Further details: dose 1 mg/kg, route intravenous.

Experimental findings from ChEMBL document CHEMBL3124869 (J Med Chem, 2014) are described below.

Molecules are shown by their SMILES.

Broadly, the CLint scaled is the rate of metabolic loss divided by the concentration. A lower CLint scaled goes with greater metabolic stability. For orientation: Papp A→B means the apparent permeability from the apical to the basolateral side of a cell layer. As a reminder, the logD is lipophilicity at a set pH, counting ionised and neutral species. A high value points to a more lipophilic compound. With `Cc1nc(C2(O)CCS(=O)(=O)C2)sc1-c1cnc(N)c(O[C@H](C)c2cc(F)ccc2-n2nccn2)c1` (stereo not given in full), the intrinsic metabolic clearance (CLint scaled) in [1] worked out at 13 mL/min/kg. The Papp A→B in [2] was found to be 14 ×10⁻⁶ cm/s. This molecule yielded a logD in data set [3] of 3.2.

As to `Cc1nc([C@@](C)(O)CO)sc1-c1cnc(N)c(O[C@H](C)c2cc(F)ccc2-n2nccn2)c1`, the CLint scaled in [1] was 15 mL/min/kg. In data set [2], this molecule had a Papp A→B of 17 ×10⁻⁶ cm/s. In [3], this molecule yielded a logD of 2.9.

In the case of `Cc1nn(C)cc1-c1cnc(N)c(O[C@H](C)c2cc(F)ccc2-n2nccn2)c1`, in data set [1], the CLint scaled amounted to 68 mL/min/kg. The Papp A→B in [2] is 27 ×10⁻⁶ cm/s. This molecule came in with a logD in [3] of 3.4.

Turning to `Cc1nc(C(C)(C)O)ccc1-c1cnc(N)c(O[C@H](C)c2cc(F)ccc2-n2nccn2)c1`, in data set [1], the intrinsic metabolic clearance (CLint scaled) was found to be 49 mL/min/kg. The same molecule gave a Papp A→B in data set [2] of 14 ×10⁻⁶ cm/s. Besides, the logD in data set [3] is 3.6.

Regarding `Cc1n[nH]cc1-c1cnc(N)c(O[C@@H](C)c2cc(F)ccc2C#N)c1`, the CLint scaled in data set [1] amounted to 37 mL/min/kg. In [2], this molecule showed a Papp A→B of 20 ×10⁻⁶ cm/s. The same molecule displayed a logD in data set [3] of 2.7.

In [1], `C[C@@H](Oc1cc(-c2ccnn2C)cnc1N)c1cc(F)ccc1-n1nccn1` showed a CLint scaled of 17 mL/min/kg. Also, in [2], the Papp A→B was 22 ×10⁻⁶ cm/s. In data set [3], the log distribution coefficient (logD) came out at 3.3.

Molecule `Cc1n[nH]cc1-c1cnc(N)c(O[C@H](C)c2cc(F)ccc2F)c1` came in with a CLint scaled in data set [1] of 31 mL/min/kg. This molecule also returned a Papp A→B in [2] of 18 ×10⁻⁶ cm/s. The logD in data set [3] was found to be 3.4.

With `Cc1nc(C2(O)CCOC2)sc1-c1cnc(N)c(O[C@H](C)c2cc(F)ccc2-n2nccn2)c1` (single isomer, unassigned), the CLint scaled in data set [1] came to 138 mL/min/kg. The molecule further returned a Papp A→B in data set [2] of 21 ×10⁻⁶ cm/s. The molecule also came in with a logD in [3] of 3.3.

Molecule `COc1ncncc1-c1cnc(N)c(O[C@H](C)c2cc(F)ccc2-n2nccn2)c1` yielded a CLint scaled in data set [1] of 49 mL/min/kg. For the same molecule, the Papp A→B in [2] stood at 22 ×10⁻⁶ cm/s. In [3], this molecule came in with a logD of 3.1.

In [1], `Cc1nc(C(C)(C)O)sc1-c1cnc(N)c(O[C@H](C)c2cc(F)ccc2-n2nccn2)c1` came in with a CLint scaled of 23 mL/min/kg. The molecule further displayed a Papp A→B in data set [2] of 18 ×10⁻⁶ cm/s. In [3], this molecule returned a logD of 3.6.

On to `COc1ncccc1-c1cnc(N)c(O[C@H](C)c2cc(F)ccc2-n2nccn2)c1`, for which, in data set [1], the CLint scaled amounted to 38 mL/min/kg. This molecule displayed an apparent permeability from apical to basolateral (Papp A→B) in data set [2] of 14 ×10⁻⁶ cm/s. In data set [3], this molecule came in with a logD of 3.7.

`Cc1n[nH]cc1-c1cnc(N)c(O[C@H](C)c2cc(F)ccc2-n2nccn2)c1` gave a CLint scaled in data set [1] of 46 mL/min/kg. Moreover, in data set [2], the Papp A→B amounted to 21 ×10⁻⁶ cm/s. The logD in data set [3] was found to be 3.3.

For `COc1ccc(F)cc1[C@@H](C)Oc1cc(-c2c[nH]nc2C)cnc1N`, in data set [1], the CLint scaled came out at 65 mL/min/kg. In data set [2], this molecule registered a Papp A→B of 14 ×10⁻⁶ cm/s. This molecule also returned a logD in data set [3] of 3.5.

Consider `Cc1nc(C2(O)CN(C)C2)sc1-c1cnc(N)c(O[C@H](C)c2cc(F)ccc2-n2nccn2)c1`, for which the CLint scaled in data set [1] was 55 mL/min/kg. Moreover, in [2], the Papp A→B was 3.4 ×10⁻⁶ cm/s. Besides, the logD in data set [3] turned out to be 2.6.

The Ki is the equilibrium dissociation constant of an inhibitor or competing ligand from its target. In general, IC50 refers to the point on the concentration scale where inhibition reaches its midpoint. Low values mean greater potency in that assay, high ones weaker potency in that assay. In the case of `C[C@@H](Oc1cc(-c2cnn(C3CCNCC3)c2)cnc1N)c1cc(F)ccc1Cl`, in [1], the CLint scaled stood at 27 mL/min/kg. In [4], this molecule gave an inhibition constant Ki of 5 nM. Further, the Papp A→B in data set [2] worked out at 2.3 ×10⁻⁶ cm/s. The logD in data set [3] is 1.7. The molecule also yielded an IC50 in data set [5] of 387 nM.

In turn, `C[C@@H](Oc1cc(-c2cnnn2C)cnc1N)c1cc(F)ccc1-n1nccn1` showed a CLint scaled in data set [1] of 3 mL/min/kg. In [2], this molecule displayed a Papp A→B of 24 ×10⁻⁶ cm/s. Further, the logD in data set [3] amounted to 2.4.

In turn, `Cc1nccn1-c1cnc(N)c(O[C@H](C)c2cc(F)ccc2-n2nccn2)c1` displayed a CLint scaled in data set [1] of 80 mL/min/kg. Also, the Papp A→B in data set [2] worked out at 21 ×10⁻⁶ cm/s. Also, in data set [3], the logD came out at 2.4.

`C[C@@H](Oc1cc(-c2cn(C)nc2C#N)cnc1N)c1cc(F)ccc1-n1nccn1` registered an intrinsic clearance (CLint scaled) in [1] of 22 mL/min/kg. The Papp A→B in [2] was 18 ×10⁻⁶ cm/s. The same molecule came in with a logD in [3] of 3.3.

A word on the Cmax: it is the maximum level reached in the sampled fluid or tissue. Broadly, the AUC is concentration integrated over time. A word on the clearance: it is the volume of plasma or blood freed of the substance per unit of time. A higher clearance goes with efficient removal. As usually defined, the half-life is how long it takes for the measured level to halve. Read a high half-life as slow loss. What is called Tmax is the time from dosing to the highest level. One may read the bioavailability as dose-corrected exposure relative to a reference, in per cent. A high value points to much systemic uptake. In data set [1], `Cc1nc([C@](C)(O)CO)sc1-c1cnc(N)c(O[C@H](C)c2cc(F)ccc2-n2nccn2)c1` gave a CLint scaled of 15 mL/min/kg. In data set [6], this molecule showed a Cmax of 568 nM. The IC50 in data set [7] was found to be 2 nM; in [8] it was 4 nM; in data set [11] it was 5 nM; in [17], 2 nM; in data set [18], 15 nM; in data set [22], 16 nM. The IC50 in [23] came to 18 nM; in [24] it was 17 nM. Besides, the Activity is on record as 56% in [9] and “Non-toxic” in data set [16]. The results for the area under the curve (AUC) in data set [10] and in data set [14] were 2.87 µM·h and 0.667 µM·h, respectively. The Papp A→B in [2] was found to be 19 ×10⁻⁶ cm/s. The molecule also registered a clearance in data set [12] of 54 mL/min/kg. This molecule also came in with a logD in [3] of 2.9. In addition, the inhibition in vivo at 30 mg/kg in data set [13] is 100%. Further, the half-life in data set [15] is 0.9 h. Further, in data set [19], the Tmax is 1.3 h. The bioavailability in data set [20] came out at 86%. In data set [21], the inhibition in vivo at 15 mg/kg worked out at 100%. Besides, in data set [25], the Ki came to 0.02 nM. Moreover, the Vd in [26] turned out to be 2 L/kg.
